IC50 data for 2 compounds are collected here from ChEMBL document CHEMBL1201862, “PubChem BioAssay data set” (2004).

Calls of active or inactive are those of the source. No stated cut-off is given here; in the data, actives have a measured IC50 and inactives only a lower limit.

The target of this assay is Envelope glycoprotein gp160 (Human immunodeficiency virus 1, UniProt Q6QLK5). Put plainly: cell-free HIV fusion peptide-binding blockers – biochemical, uHTS, fluorescence dequenching, […] (AID 1986).
Chain of Envelope glycoprotein gp160 (Q6QLK5 whole entry, the tested form may be a part): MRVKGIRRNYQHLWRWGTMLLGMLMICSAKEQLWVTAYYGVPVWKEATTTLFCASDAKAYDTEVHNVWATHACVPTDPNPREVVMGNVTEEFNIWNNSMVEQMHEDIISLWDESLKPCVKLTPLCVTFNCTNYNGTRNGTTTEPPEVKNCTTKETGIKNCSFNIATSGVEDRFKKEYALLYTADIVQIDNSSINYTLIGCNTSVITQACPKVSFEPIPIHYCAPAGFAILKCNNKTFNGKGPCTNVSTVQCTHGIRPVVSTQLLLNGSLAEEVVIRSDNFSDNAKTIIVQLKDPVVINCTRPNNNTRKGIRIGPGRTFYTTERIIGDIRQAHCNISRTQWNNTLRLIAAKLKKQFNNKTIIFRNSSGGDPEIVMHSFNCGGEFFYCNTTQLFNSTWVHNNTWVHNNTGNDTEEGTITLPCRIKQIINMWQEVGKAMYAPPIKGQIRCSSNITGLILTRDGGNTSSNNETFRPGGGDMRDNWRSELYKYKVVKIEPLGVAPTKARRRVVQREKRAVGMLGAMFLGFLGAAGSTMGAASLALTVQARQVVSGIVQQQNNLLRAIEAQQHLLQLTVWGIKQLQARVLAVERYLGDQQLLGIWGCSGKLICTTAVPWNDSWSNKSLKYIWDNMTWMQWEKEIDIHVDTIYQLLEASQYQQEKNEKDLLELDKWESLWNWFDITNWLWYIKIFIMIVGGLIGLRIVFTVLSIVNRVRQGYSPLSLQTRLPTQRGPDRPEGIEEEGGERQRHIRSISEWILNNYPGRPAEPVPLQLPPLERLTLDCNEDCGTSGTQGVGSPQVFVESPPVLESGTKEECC

For `COc1ccc(/C=C2/SC(=S)N(CC(=O)O)C2=O)cc1OCc1ccc(Cl)cc1`, the half-maximal inhibitory concentration (IC50) (as a rule, the concentration that gives 50% inhibition) is 16.5 µM (active). The result for `COC(=O)c1sc(-c2ccc(C(C)(C)C)cc2)cc1NC(=O)c1ccccc1C(=O)O` reads 18.5 µM (active).
